The results in this text go back to ChEMBL document CHEMBL4813949, “Hypothemycin-Type Resorcylic Acid Lactones with Immunosuppressive Activities from a Podospora sp” (J Nat Prod, 2021).

Data set [1] deals with T-cell. In words: Induction of apoptosis in ConA-induced mouse splenic T cells assessed as late apoptotic cells at 15 uM after 48 hrs by Annexin V-FITC/propidium iodide staining based flow cytometry analysis (reference value: 0.6 %). It is filed as functional.
For data set [2], the system named is T-cell. In words: Induction of apoptosis in ConA-induced mouse splenic T cells assessed as late apoptotic cells at 1 uM after 48 hrs by Annexin V-FITC/propidium iodide staining based flow cytometry analysis (reference value: 0.6 %). It is filed as functional.
Data set [3] has as its system Splenocyte. In words: Immunosuppressive activity in BALB/c mouse splenocytes assessed as inhibition of LPS-stimulated B-cell proliferation incubated for 48 hrs by MTT assay. It is filed as functional, cell-based.
Data set [4] concerns T-cell. In words: Induction of apoptosis in ConA-induced mouse splenic T cells assessed as late apoptotic cells at 5 uM after 48 hrs by Annexin V-FITC/propidium iodide staining based flow cytometry analysis (reference value: 0.6 %). It is filed as functional.
The subject of data set [5] is T-cell. In words: Induction of apoptosis in ConA-induced mouse splenic T cells assessed as early apoptotic cells at 5 uM after 48 hrs by Annexin V-FITC/propidium iodide staining based flow cytometry analysis (reference value: 7.1 %). It is filed as functional.
Data set [6] relates to T-cell. In words: Induction of apoptosis in ConA-induced mouse splenic T cells assessed as early apoptotic cells at 1 uM after 48 hrs by Annexin V-FITC/propidium iodide staining based flow cytometry analysis (reference value: 7.1 %). It is filed as functional.
Data set [7] deals with T-cell. In words: Induction of apoptosis in ConA-induced mouse splenic T cells assessed as early apoptotic cells at 15 uM after 48 hrs by Annexin V-FITC/propidium iodide staining based flow cytometry analysis (reference value: 7.1 %). It is filed as functional.
Data set [8] has as its system Splenocyte. In words: Immunosuppressive activity in BALB/c mouse splenocytes assessed as inhibition of concanavalin A-stimulated T-cell proliferation incubated for 48 hrs by MTT assay. It is filed as functional, cell-based.
The test system of data set [9] is Splenocyte. In words: Cytotoxicity against BALB/c mouse splenocytes at 50 uM incubated for 48 hrs by MTT assay. It is filed as cell-based.
Data set [10] relates to T-cell. In words: Induction of apoptosis in ConA-induced mouse splenic T cells assessed as early apoptotic cells at 10 uM after 48 hrs by Annexin V-FITC/propidium iodide staining based flow cytometry analysis (reference value: 6.9 %). It is filed as functional.
Data set [11] relates to T-cell. In words: Induction of apoptosis in ConA-induced mouse splenic T cells assessed as increase in cleaved caspase 9 protein expression after 48 hrs by Western blotting analysis. It is filed as functional, cell-based. Particulars: dose 5-20 µM.
Data set [12] has as its system T-cell. In words: Induction of apoptosis in ConA-induced mouse splenic T cells assessed as decrease in Mcl-1 protein expression after 48 hrs by Western blotting analysis. It is filed as functional, cell-based. Particulars: dose 5-20 µM.
Data set [13] deals with T-cell. In words: Induction of apoptosis in ConA-induced mouse splenic T cells assessed as downregulation of JNK phosphorylation after 48 hrs by Western blotting analysis. Particulars: dose 5-20 µM. It is filed as functional, cell-based.
The subject of data set [14] is T-cell. In words: Induction of apoptosis in ConA-induced mouse splenic T cells assessed as increase in cleaved caspase 3 protein expression after 48 hrs by Western blotting analysis. It is filed as functional, cell-based. The following applies: dose 5-20 µM.
The test system of data set [15] is T-cell. In words: Induction of apoptosis in ConA-induced mouse splenic T cells assessed as late apoptotic cells at 20 uM after 48 hrs by Annexin V-FITC/propidium iodide staining based flow cytometry analysis (reference value: 0.4 %). It is filed as functional.
Data set [16] concerns T-cell. In words: Induction of apoptosis in ConA-induced mouse splenic T cells assessed as decrease in Bcl-xL protein expression after 48 hrs by Western blotting analysis. Particulars: dose 5-20 µM. It is filed as functional, cell-based.
In data set [17] the test system is T-cell. In words: Induction of apoptosis in ConA-induced mouse splenic T cells assessed as early apoptotic cells at 20 uM after 48 hrs by Annexin V-FITC/propidium iodide staining based flow cytometry analysis (reference value: 6.9 %). It is filed as functional.
For data set [18], the system named is T-cell. In words: Induction of apoptosis in ConA-induced mouse splenic T cells assessed as decrease in Bcl-2 protein expression after 48 hrs by Western blotting analysis. It is filed as functional, cell-based. Particulars: dose 5-20 µM.
Data set [19] deals with T-cell. In words: Induction of apoptosis in ConA-induced mouse splenic T cells assessed as late apoptotic cells at 10 uM after 48 hrs by Annexin V-FITC/propidium iodide staining based flow cytometry analysis (reference value: 0.4 %). It is filed as functional.
In data set [20] the test system is T-cell. In words: Induction of apoptosis in ConA-induced mouse splenic T cells assessed as increase in cytochrome C protein expression after 48 hrs by Western blotting analysis. It is filed as functional, cell-based. The following applies: dose 5-20 µM.
Data set [21] concerns T-cell. In words: Induction of apoptosis in ConA-induced mouse splenic T cells assessed as early apoptotic cells at 5 uM after 48 hrs by Annexin V-FITC/propidium iodide staining based flow cytometry analysis (reference value: 6.9 %). It is filed as functional.
Data set [22] relates to T-cell. In words: Induction of apoptosis in ConA-induced mouse splenic T cells assessed as late apoptotic cells at 5 uM after 48 hrs by Annexin V-FITC/propidium iodide staining based flow cytometry analysis (reference value: 0.4 %). It is filed as functional.
Data set [23] concerns T-cell. In words: Induction of apoptosis in ConA-induced mouse splenic T cells assessed as increase in Bax protein expression after 48 hrs by Western blotting analysis. It is filed as functional, cell-based. The following applies: dose 5-20 µM.

As for `COc1cc(O)c2c(c1)/C=C/C[C@H](O)[C@H](O)C(=O)CCC[C@H](C)OC2=O`, the Activity in [1] is reported as 59.1%; in [2], 26.5%; in data set [4], 32.9%; in data set [5], 5.8%; in data set [6] it was 9.1%; in data set [7], 4.6%. Further, in data set [9], the Activity result is reported as “Non-Toxic”. Moreover, the figures for the IC50 in data set [3] and in data set [8] were 6.4 µM and 7.4 µM, respectively.
Consider `C[C@H](O)C/C=C/[C@@H]1CCCC(=O)Cc2cc(O)cc(O)c2C(=O)O1`, for which the Activity was 11% in [10]; “Dose-Dependent Effect” in [11]; “Dose-Dependent Effect” in data set [12]; “Dose-Dependent Effect” in [13]; “Dose-Dependent Effect” in [14]; 55.8% in [15]. The Activity result in data set [16] was “Dose-Dependent Effect”; in data set [17], 8.9%; in data set [18], “Dose-Dependent Effect”; in data set [19] it was 37.2%; in [20], “Dose-Dependent Effect”; in data set [21] it was 12.1%. In addition, the Activity in [22] was 26.2%; in [23], “Dose-Dependent Effect”; in [9], “Non-Toxic”. Moreover, the 50% inhibitory concentration (IC50) was 10.3 µM in [3] and 10.6 µM in data set [8].
`COc1cc(O)c2c(c1)/C=C/C[C@H](O)[C@@H](O)C(=O)CCC[C@H](C)OC2=O`: the IC50 in data set [3] and in [8] was greater than 50 µM in each case. The Activity result in data set [9] was “Non-Toxic”.
As for `COc1c(C)c2c(c(O)c1C/C=C(\C)CCC(=O)OCCN1CCOCC1)C(=O)OC2` [MYCOPHENOLATE MOFETIL], the IC50 in [3] stood at 0.5 µM.
As for `COc1cc(O)c2c(c1)/C=C/C[C@@H](O)[C@@H](O)C(=O)CCC[C@H](C)OC2=O`, the IC50 in data set [3] stood at 14.6 µM; in [8] it was 16.5 µM. In addition, the Activity result in data set [9] was “Non-Toxic”.
Consider `COc1cc(O)c2c(c1)/C=C/C[C@H](O)[C@@H](O)C(=O)/C=C/C[C@H](C)OC2=O`, for which the IC50 in data set [3] was 29.1 µM; in data set [8], 24.1 µM. Moreover, the Activity entry in data set [9] is listed as “Non-Toxic”.
In the case of `C[C@H](O)CCC[C@@H]1CCCC(=O)Cc2cc(O)cc(O)c2C(=O)O1`, the IC50 in data set [3] and in [8] was greater than 50 µM in each case. Moreover, in [9], the Activity result was “Non-Toxic”.
Turning to `COc1cc(O)c2c(c1)/C=C/C[C@@H](O)[C@H](O)C(=O)/C=C/C[C@H](C)OC2=O`, the IC50 in data set [3] came out at 6.8 µM; in data set [8], 11.4 µM. Besides, in data set [9], the Activity entry is given as “Non-Toxic”.
The corresponding values for `C[C@H](O)C[C@@H]1CCCCCc2cc(O)cc(O)c2C(=O)O1` are greater than 50 µM, greater than 50 µM and “Non-Toxic”.
As to `COc1cc(O)c2c(c1)/C=C/C[C@H](O)C(=O)CCCC[C@H](C)OC2=O`, the IC50 in [3] and in [8] was greater than 50 µM in each case. The Activity result in data set [9] is on record as “Non-Toxic”.
For the compound `COc1cc(O)c2c(c1)/C=C/CC[C@H](O)C(=O)CCC[C@H](C)OC2=O`, the IC50 in data set [3] and in data set [8] was greater than 50 µM each time. Further, in data set [9], the Activity entry was “Non-Toxic”.
In the case of `COc1cc(O)c2c(c1)/C=C/CC[C@H](O)[C@H](O)CCC[C@H](C)OC2=O`, the IC50 in data set [3] and in data set [8] was greater than 50 µM in each case. In addition, in data set [9], the Activity result is “Non-Toxic”.
For the compound `C[C@H]1C/C=C/[C@@H](O)[C@@H](O)CC/C=C/c2cc(O)cc(O)c2C(=O)O1` [AIGIALOMYCIN D], the half-inhibitory concentration (IC50) in [3] was found to be 18.4 µM; in data set [8], 16.3 µM. The Activity result in [9] is “Non-Toxic”.
On to `COc1cc(O)c2c(c1)/C=C/C[C@H](O)[C@H](O)C(=O)C[C@H](O)C[C@H](C)OC2=O`, for which the half-maximal inhibitory concentration (IC50) in data set [3] was determined as 21.9 µM; in data set [8], 18.8 µM. The Activity result in data set [9] was “Non-Toxic”.
In the case of `COc1cc(O)c2c(c1)/C=C/CCC(=O)[C@H](O)CCC[C@H](C)OC2=O`, the IC50 stood at 27.7 µM in data set [3] and 25.1 µM in data set [8]. In [9], the Activity result is “Non-Toxic”.
As to `COc1cc(O)c2c(c1)/C=C/CCC(=O)[C@@H](O)CCC[C@H](C)OC2=O`, the IC50 in data set [3] and in [8] was greater than 50 µM throughout. Further, the Activity result in [9] is reported as “Non-Toxic”.
`COc1cc(O)c2c(c1)/C=C/C[C@@H](O)[C@@H](O)C(=O)/C=C/C[C@H](C)OC2=O`: the results for the IC50 in data set [3] and in data set [8] were 11.8 µM and 15.2 µM, respectively. Moreover, the Activity entry in data set [9] was “Non-Toxic”.
Consider `COc1cc(O)c2c(c1)/C=C/C[C@H](O)[C@@H](O)[C@@H](O)CCC[C@H](C)OC2=O`, for which the IC50 in data set [3] and in data set [8] was greater than 50 µM throughout. In data set [9], the Activity result is “Non-Toxic”.
As to `COc1cc(O)c2c(c1)[C@H]1O[C@@H]1C[C@H](O)[C@H](O)C(=O)CCC[C@H](C)OC2=O`, the half-maximal inhibitory concentration (IC50) turned out to be 8.5 µM in data set [3] and 8.1 µM in [8]. In addition, the Activity result in [9] is on record as “Non-Toxic”.
Consider `COc1cc(O)c2c(c1)/C=C/C[C@H](O)[C@H](O)C(=O)/C=C/C[C@H](C)OC2=O`, for which the results for the concentration for half-maximal inhibition (IC50) in data set [3] and in [8] were 6.2 µM and 6 µM, respectively. For the same compound, the Activity entry in data set [9] is on record as “Non-Toxic”.
